Measured values taken from US10364226B2, “Pyridazinone compounds and uses thereof” (priority 2013, dated 2019).

How the values were obtained:
[1] = tested on: Influenza strain A549 A/WSN/33 (H1N1); test: Influenza Antiviral Assay; format: cell-based, Influenza A virus; settings: Influenza A virus, A549, 20 h, neuraminidase fluorescence readout, read-out: % Inhibition
[2] = molecular target: EN PA (Influenza A virus, UniProt P15659); test: EN PA FRET Inhibition Assay; format: biochemical; settings: read-out: Potency

Row | SMILES | EC50 [1] [nM] | IC50 [2] [nM]
1 | C#Cc1cn(C2(Cn3cc(O)c(=O)c(C(=O)NC)n3)CCCC2)c2ncc(C)cc12 [Compound 875] | < 20000 | < 100
2 | Cc1cn(C2(Cn3cc(O)c(=O)c(C(=O)NCCNC(=O)OC(C)(C)C)n3)CCCC2)c2ncccc12 [Compound 876] | < 20000 | < 100
3 | Cc1cn(C2(Cn3cc(O)c(=O)c(C(=O)N4CCOCC4)n3)CCCC2)c2ncccc12 [Compound 877] | > 100000 | 100 to 1000
4 | CNC(=O)c1nn(CC2(c3ccc4cc(C)ccc4c3)CCCC2)cc(O)c1=O [Compound 879] | < 20000 | < 100
5 | CNC(=O)c1nn(CC2(n3cc(C(=O)NC)c4cccnc43)CCCC2)cc(O)c1=O [Compound 880] | > 100000 | < 100
6 | CNC(=O)c1nn(CC2(c3cccc4c3cnn4C)CCCC2)cc(O)c1=O [Compound 881] | < 20000 | < 100
7 | CNC(=O)c1nn(CC2(c3cccc4nn(C)cc34)CCCC2)cc(O)c1=O [Compound 882] | < 20000 | < 100
8 | CNC(=O)c1nn(CC2(n3cc(C(N)=O)c4cccnc43)CCCC2)cc(O)c1=O [Compound 883] | > 100000 | < 100
9 | CNC(=O)c1nn(CC2(N3c4ccccc4C=Cc4ccccc43)CCCC2)cc(O)c1=O [Compound 884] | < 20000 | < 100
10 | CNC(=O)c1nn(CC2(n3cc(C)c4cccnc43)C[C@@H]3[C@@H](CO)[C@@H]3C2)cc(O)c1=O (stereo partly drawn) [Compound 885] | > 100000 | 100 to 1000
11 | CNC(=O)c1nn(CC2(n3ccc4cc(OC)cnc43)CCCC2)cc(O)c1=O [Compound 886] | < 20000 | < 100
12 | CNC(=O)c1nn(CC2(n3cc(Cl)c4cc(Cl)cnc43)CCCC2)cc(O)c1=O [Compound 887] | < 20000 | < 100
13 | CNC(=O)c1nn(CC2(c3cc(C)c4cccnc4c3)CCCC2)cc(O)c1=O [Compound 888] | < 20000 | < 100
14 | CNC(=O)c1nn(CC2(c3cc(C)cc4ncccc34)CCCC2)cc(O)c1=O [Compound 889] | < 20000 | < 100
15 | CNC(=O)c1nn(CC2(c3ccc4cc(C)cnc4c3)CCCC2)cc(O)c1=O [Compound 890] | < 20000 | < 100
16 | CNC(=O)c1nn(CC2(n3c4c(c5ccccc53)CCC4)CCCC2)cc(O)c1=O [Compound 891] | < 20000 | < 100
17 | CNC(=O)c1nn(CC2(n3cc(OC)c4cccnc43)CCCC2)cc(O)c1=O [Compound 892] | < 20000 | < 100
18 | CNC(=O)c1nn(CC2(c3cc4ccccc4cc3Cl)CCCC2)cc(O)c1=O [Compound 893] | < 20000 | < 100
19 | CNC(=O)c1nn(CC2(n3cc(C(C)=O)c4cc(C)cnc43)CCCC2)cc(O)c1=O [Compound 894] | < 20000 | < 100
20 | O=C1NCCCCCOc2cccc(c2)C2(CCCC2)Cn2cc(O)c(=O)c1n2 [Compound 895] | < 20000 | < 100
21 | CNC(=O)c1nn(CC2(n3c4ccccc4c4ccccc43)CCCC2)cc(O)c1=O [Compound 896] | < 20000 | < 100
22 | CNC(=O)c1nn(CC2(c3ccc4c(C)cccc4c3)CCCC2)cc(O)c1=O [Compound 897] | < 20000 | < 100
23 | CNC(=O)c1nn(CC2(n3cc(C)c4cc(Cl)ccc43)CCCC2)cc(O)c1=O [Compound 898] | < 20000 | < 100
24 | CNC(=O)c1nn(CC2(n3cc(Cl)c4cc(Cl)ccc43)CCCC2)cc(O)c1=O [Compound 899] | < 20000 | < 100
